Measured values: paper PMC8025302, “Structural and biophysical characterization of the tandem substrate-binding domains of the ABC importer GlnPQ” (Open Biology, 2021)
Values joined by “and” are separate entries in the source; they are usually repeats but may differ in a detail not shown here. Identical values can stand only once.

Tests used:
SBD1^A-2 = biological target: T1, SBD1^A-2 (Lactococcus lactis, UniProt Q9CES5, T159C, form not given); assay: smFRET / ALEX spectroscopy titration, tandem SBD1^A-2; format: binding; conditions: Alexa Fluor 555/647, read-out: apparent KD
T1 sequence (Q9CES5 27-484 T159C): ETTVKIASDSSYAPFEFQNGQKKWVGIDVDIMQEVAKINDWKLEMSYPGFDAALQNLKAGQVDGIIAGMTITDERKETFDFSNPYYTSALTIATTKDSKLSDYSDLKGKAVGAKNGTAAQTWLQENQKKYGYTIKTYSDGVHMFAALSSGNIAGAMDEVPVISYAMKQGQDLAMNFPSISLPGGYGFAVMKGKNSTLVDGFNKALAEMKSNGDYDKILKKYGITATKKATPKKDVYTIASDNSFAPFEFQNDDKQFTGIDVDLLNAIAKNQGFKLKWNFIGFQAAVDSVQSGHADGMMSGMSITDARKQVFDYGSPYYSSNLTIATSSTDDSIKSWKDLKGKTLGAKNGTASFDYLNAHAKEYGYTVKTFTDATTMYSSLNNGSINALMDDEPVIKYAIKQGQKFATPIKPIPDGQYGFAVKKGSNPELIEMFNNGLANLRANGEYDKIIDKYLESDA

SBD1 in SBD1-Δ5-SBD2 = biological target: T2, SBD1 in SBD1-Δ5-SBD2 (Lactococcus lactis, UniProt Q9CES5, DEL252-256); assay: Isothermal titration calorimetry, SBD1 site of linker deletion mutant; format: binding; conditions: ITC
T2 sequence (Q9CES5 27-484 DEL252-256): T1 sequence (Q9CES5 27-484 T159C)

SBD1-2(D417F) = biological target: T3, SBD1-2(D417F) (Lactococcus lactis, UniProt Q9CES5, D417F); assay: Isothermal titration calorimetry, tandem variant with inactive SBD2; conditions: binding to SBD1 in SBD1-2(D417F) (inactive SBD2); ITC
T3 sequence (Q9CES5 27-484 D417F): T1 sequence (Q9CES5 27-484 T159C)

[1] = biological target: T4, SBD1^A (SBD1(T159C/G87C)) (Lactococcus lactis, UniProt Q9CES5, T159C, form not given); assay: smFRET / ALEX spectroscopy titration, single SBD1^A; format: binding; conditions: single domain SBD1^A, Alexa Fluor 555/647, read-out: apparent KD
T4 sequence (Q9CES5 29-251 T159C): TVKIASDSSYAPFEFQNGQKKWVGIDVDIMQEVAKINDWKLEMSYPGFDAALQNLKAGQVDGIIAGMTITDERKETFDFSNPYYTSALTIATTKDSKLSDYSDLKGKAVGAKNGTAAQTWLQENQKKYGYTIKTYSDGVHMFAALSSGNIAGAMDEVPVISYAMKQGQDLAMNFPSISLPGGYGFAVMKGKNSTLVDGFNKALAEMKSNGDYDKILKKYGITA

SBD2 in SBD1-Δ5-SBD2 = biological target: T5, SBD2 in SBD1-Δ5-SBD2 (Lactococcus lactis, UniProt Q9CES5, DEL252-256); assay: Isothermal titration calorimetry, SBD2 site of linker deletion mutant; format: binding; conditions: SBD1-Δ5-SBD2, high-affinity site (SBD2), no asparagine; ITC figure 6f
T5 sequence (Q9CES5 27-484 DEL252-256): T1 sequence (Q9CES5 27-484 T159C)

[2] = biological target: T6, SBD2^C (SBD2(T369C/S451C)) (Lactococcus lactis, UniProt Q9CES5, S451C/T369C); assay: smFRET / ALEX spectroscopy titration, single SBD2^C; format: binding; conditions: single domain SBD2^C, Alexa Fluor 555/647, read-out: apparent KD
T6 sequence (Q9CES5 255-484 T369C/S451C): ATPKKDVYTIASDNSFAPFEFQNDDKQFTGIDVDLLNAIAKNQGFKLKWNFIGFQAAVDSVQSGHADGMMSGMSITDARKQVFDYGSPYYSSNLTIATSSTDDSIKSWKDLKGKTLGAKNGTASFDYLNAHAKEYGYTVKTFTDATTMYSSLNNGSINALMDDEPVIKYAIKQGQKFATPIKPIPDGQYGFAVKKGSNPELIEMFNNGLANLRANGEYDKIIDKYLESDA

SBD1(E184W)-2 = biological target: T7, SBD1(E184W)-2 (Lactococcus lactis, UniProt Q9CES5, E184W); assay: Isothermal titration calorimetry, tandem variant with inactive SBD1; conditions: binding to SBD2 in SBD1-2(E184W) (inactive SBD1); ITC
T7 sequence (Q9CES5 27-484 E184W): T1 sequence (Q9CES5 27-484 T159C)

SBD1-2^C = biological target: T8, SBD1-2^C (Lactococcus lactis, UniProt Q9CES5, S451C/T369C); assay: smFRET / ALEX spectroscopy titration, tandem SBD1-2^C; format: binding; conditions: Alexa Fluor 555/647, read-out: apparent KD
T8 sequence (Q9CES5 27-484 T369C/S451C): T1 sequence (Q9CES5 27-484 T159C)

SMILES	Kd (SBD1^A-2) [nM]	Kd (SBD1 in SBD1-Δ5-SBD2)	Kd (SBD1-2(D417F)) [nM]	Kd [1] [nM]	Kd (SBD2 in SBD1-Δ5-SBD2) [nM]	Kd [2]	Kd (SBD1(E184W)-2) [nM]	Kd (SBD1-2^C)
NC(=O)C[C@H](N)C(=O)O [asparagine]	75	60 nM	400 ± 60	140				
NC(=O)CC[C@H](N)C(=O)O [glutamine]	300000	25800 nM and 19000 nM		130000	1700	1500 nM and ~1500 nM	1500 ± 800	900 nM and ~900 nM
